Assays:
[1] = biological target: T1, ARTD4/PARP4 (Homo sapiens, UniProt Q9UKK3); experiment: ARTD profiling, ARTD4
T1 sequence (Q9UKK3 369-573 limits assumed): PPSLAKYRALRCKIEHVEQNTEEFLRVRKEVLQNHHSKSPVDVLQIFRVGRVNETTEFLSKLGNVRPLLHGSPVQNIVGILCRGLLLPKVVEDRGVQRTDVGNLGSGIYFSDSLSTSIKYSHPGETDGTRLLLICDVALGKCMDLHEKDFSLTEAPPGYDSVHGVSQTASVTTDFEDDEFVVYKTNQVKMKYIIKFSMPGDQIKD

[2] = biological target: T2, human CK2α-1 (Homo sapiens, UniProt P68400); experiment: ADP-Glo kinase assay, CK2; assay type: biochemical; details: read-out: CK2 (% Inhib.); for inhibition at 1 µM: 1 µM compound, Table S3; for inhibition at 10 µM: 10 µM compound, Table S4
T2 construct: purchased Promega V4,482
T2 sequence (P68400 whole entry): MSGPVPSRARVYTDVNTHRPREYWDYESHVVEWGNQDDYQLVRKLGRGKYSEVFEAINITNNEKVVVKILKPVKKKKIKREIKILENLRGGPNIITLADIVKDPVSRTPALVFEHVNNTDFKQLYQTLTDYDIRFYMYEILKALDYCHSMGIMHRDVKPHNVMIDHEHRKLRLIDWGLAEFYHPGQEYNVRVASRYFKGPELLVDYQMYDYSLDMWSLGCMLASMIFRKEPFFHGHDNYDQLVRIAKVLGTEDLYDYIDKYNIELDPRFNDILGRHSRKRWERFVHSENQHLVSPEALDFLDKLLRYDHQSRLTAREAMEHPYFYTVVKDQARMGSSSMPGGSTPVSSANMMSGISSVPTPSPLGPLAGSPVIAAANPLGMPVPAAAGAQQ
Procedure: The kinase functional assays were performed using a combination of kinase and 1.5 μM peptide substrate in the presence of ATP. The reaction mixture was analyzed on the Caliper LabChip 3,000 (Caliper, Hopkinton, MA) by the electrophoretic mobility shift of the fluorescent substrate and phosphorylated product. For the inhibition of human CK2α-1, the experiments were carried out with ADP-Glo kinase Assay Kit (Promega V9,101). Assays are described in detail in the Supplementary Methods and Table S6. […]
Dose-response curves were generated to determine the concentration required to inhibit 50% of kinase activity (IC50). Staurosporine (Invitrogen BP2,451) was included as a positive control of each enzymatic assay. The profiling of the kinases was done at 1 and at 10 μM of the compound.
For the inhibition of human CK2α-1, the experiments were carried out in a white 384-microplate low flange (Corning 3,572) with ADP-Glo kinase Assay Kit (Promega V9101) and CK2α-1 Kinase Enzyme System (Promega V4,482). The test compounds and standard staurosporine (Invitrogen BP2451), 25 ng/well CK2α-1 kinase and 50 µM ATP were added in a final volume of 10 µl/well using reaction buffer supplied by kit as assay buffer. The reaction mixture was incubated in gentle shaking for 60 minutes at room temperature. After the incubation 10 µl of ADP-Glo reagent was added and incubated in gentle shaking for 40 minutes at room temperature. Finally 20 µl of Kinase Detection Reagent was added and the plate was incubated on a shaker for 30 minutes at room […]
temperature. […]

[3] = biological target: ARTD5/TNKS1 (Homo sapiens, UniProt O95271); experiment: NAD+ quantification activity assay, TNKS1; assay type: biochemical; details: NAD+ 500 nM
Sequence of ARTD5/TNKS1 (O95271 1112-1317): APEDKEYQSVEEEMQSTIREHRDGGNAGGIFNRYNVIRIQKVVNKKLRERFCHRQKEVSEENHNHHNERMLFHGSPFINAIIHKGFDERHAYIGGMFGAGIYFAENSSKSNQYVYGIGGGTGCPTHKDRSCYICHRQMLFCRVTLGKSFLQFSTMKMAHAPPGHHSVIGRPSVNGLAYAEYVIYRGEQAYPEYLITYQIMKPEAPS
Procedure: (§1) Protein (nM) NAD+ (nM) Incubation Buffer
(§2) Kinase [ATP] Substrate Incubation Reaction buffer

[4] = biological target: T3, ARTD15/PARP16 (Homo sapiens, UniProt Q8N5Y8); experiment: ARTD profiling, ARTD15
T3 sequence (Q8N5Y8 1-322): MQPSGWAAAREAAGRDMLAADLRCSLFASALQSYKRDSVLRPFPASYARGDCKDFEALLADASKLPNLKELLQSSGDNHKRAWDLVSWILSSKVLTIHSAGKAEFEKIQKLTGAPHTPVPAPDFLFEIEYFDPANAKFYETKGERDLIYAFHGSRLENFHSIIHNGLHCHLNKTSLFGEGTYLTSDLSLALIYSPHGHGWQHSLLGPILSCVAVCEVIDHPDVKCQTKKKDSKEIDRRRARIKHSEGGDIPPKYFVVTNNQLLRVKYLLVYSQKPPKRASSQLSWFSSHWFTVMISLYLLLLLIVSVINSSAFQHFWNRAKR

[5] = biological target: T4, ARTD7/PARP15 (Homo sapiens, UniProt Q460N3); experiment: ARTD profiling, ARTD7
T4 sequence (Q460N3 482-678 limits assumed): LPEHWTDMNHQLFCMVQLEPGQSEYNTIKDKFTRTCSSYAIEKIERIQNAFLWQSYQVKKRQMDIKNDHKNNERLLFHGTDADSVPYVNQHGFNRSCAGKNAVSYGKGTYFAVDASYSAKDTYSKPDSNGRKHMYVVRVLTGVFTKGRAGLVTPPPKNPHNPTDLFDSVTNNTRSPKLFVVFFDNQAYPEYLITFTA

[6] = system: Akt; experiment: Kinase functional assay (mobility shift), Akt; assay type: biochemical
[7] = biological target: T5, ARTD3/PARP3 (Homo sapiens, UniProt Q9Y6F1); experiment: ARTD profiling, ARTD3; assay type: biochemical; details: NAD+ 500 nM
T5 sequence (Q9Y6F1 1-533): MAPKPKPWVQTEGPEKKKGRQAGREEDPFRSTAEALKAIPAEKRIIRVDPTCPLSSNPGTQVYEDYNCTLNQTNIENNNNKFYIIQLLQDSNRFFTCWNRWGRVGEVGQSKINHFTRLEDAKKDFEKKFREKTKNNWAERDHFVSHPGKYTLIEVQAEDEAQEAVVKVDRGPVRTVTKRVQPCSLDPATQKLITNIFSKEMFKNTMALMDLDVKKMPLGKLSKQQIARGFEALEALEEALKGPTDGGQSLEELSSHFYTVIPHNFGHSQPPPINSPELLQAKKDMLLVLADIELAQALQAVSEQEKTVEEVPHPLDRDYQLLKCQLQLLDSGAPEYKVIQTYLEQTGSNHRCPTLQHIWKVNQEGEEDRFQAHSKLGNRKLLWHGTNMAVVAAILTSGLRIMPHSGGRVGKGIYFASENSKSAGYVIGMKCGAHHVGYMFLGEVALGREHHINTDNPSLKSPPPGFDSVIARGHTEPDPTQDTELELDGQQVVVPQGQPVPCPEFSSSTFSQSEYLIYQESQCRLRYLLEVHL
Procedure: as §1, §2

[8] = biological target: T6, ARTD10/PARP10 (Homo sapiens, UniProt Q53GL7); experiment: ARTD profiling, ARTD10
T6 sequence (Q53GL7 806-1025 limits assumed): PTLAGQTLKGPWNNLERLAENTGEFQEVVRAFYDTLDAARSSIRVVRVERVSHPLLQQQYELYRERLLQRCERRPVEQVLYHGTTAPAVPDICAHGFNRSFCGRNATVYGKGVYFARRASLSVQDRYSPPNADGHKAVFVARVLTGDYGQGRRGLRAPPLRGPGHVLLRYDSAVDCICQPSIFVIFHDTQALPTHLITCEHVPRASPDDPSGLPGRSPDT

[9] = biological target: ARTD8/PARP14 (Homo sapiens, UniProt Q460N5); experiment: ARTD profiling, ARTD8
Sequence of ARTD8/PARP14 (Q460N5 whole entry): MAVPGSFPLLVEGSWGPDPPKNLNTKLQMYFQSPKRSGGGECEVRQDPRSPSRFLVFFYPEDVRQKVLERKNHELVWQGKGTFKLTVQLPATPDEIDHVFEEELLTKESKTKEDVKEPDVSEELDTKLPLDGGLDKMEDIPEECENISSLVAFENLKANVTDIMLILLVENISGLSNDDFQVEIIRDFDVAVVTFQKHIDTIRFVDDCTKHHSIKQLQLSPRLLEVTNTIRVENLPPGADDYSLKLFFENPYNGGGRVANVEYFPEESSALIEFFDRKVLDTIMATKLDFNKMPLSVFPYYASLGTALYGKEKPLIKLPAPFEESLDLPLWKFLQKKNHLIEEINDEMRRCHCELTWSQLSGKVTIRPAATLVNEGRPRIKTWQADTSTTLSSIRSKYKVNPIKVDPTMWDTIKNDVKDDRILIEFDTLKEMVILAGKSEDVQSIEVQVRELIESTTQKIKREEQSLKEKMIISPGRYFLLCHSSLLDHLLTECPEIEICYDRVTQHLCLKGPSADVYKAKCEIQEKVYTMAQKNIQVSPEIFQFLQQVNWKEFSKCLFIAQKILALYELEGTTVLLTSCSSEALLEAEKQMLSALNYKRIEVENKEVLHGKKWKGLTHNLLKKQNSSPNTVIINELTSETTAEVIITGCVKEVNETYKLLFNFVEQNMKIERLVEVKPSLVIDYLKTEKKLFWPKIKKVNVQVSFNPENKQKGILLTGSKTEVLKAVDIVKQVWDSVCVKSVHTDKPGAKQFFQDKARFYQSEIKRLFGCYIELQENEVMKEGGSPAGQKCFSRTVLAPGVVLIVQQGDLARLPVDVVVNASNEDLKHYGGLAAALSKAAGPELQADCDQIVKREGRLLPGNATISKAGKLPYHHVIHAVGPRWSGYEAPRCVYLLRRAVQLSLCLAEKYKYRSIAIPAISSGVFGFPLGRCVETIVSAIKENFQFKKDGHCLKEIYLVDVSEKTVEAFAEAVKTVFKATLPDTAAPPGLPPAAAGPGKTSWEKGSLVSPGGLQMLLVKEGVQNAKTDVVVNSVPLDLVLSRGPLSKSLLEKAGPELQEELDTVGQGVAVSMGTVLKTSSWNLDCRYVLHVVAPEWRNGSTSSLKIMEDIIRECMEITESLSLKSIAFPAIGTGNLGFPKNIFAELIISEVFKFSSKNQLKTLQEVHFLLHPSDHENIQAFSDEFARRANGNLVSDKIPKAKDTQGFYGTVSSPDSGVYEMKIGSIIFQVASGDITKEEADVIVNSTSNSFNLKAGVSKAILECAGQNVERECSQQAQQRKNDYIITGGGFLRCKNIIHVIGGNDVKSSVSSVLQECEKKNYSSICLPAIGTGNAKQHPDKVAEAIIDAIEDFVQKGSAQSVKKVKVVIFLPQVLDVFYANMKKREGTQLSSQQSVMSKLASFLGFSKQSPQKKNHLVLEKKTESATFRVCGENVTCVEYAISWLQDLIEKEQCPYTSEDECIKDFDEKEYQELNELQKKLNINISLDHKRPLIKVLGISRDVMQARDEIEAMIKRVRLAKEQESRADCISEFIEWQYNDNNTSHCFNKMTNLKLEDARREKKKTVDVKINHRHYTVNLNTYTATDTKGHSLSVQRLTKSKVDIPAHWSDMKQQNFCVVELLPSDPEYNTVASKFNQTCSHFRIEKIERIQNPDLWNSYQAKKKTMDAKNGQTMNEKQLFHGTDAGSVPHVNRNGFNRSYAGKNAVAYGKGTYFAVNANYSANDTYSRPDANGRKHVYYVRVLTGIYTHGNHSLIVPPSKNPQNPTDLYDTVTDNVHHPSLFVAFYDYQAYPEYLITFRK

[10] = biological target: p38α (Homo sapiens, UniProt Q16539); experiment: Kinase functional assay (mobility shift), p38α; assay type: biochemical; details: read-out: p38α (% Inhib.); for inhibition at 1 µM: 1 µM compound, Table S3; for inhibition at 10 µM: 10 µM compound, Table S4
Sequence of p38α (Q16539 whole entry): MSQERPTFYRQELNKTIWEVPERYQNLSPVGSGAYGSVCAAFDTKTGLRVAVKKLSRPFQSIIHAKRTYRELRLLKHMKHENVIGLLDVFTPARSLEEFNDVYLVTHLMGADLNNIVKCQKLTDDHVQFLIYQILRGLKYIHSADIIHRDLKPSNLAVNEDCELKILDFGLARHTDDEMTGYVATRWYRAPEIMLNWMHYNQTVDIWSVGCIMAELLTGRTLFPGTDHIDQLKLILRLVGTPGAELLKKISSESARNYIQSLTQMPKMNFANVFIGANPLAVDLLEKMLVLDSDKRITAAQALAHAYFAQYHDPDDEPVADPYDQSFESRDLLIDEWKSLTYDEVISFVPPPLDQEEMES

[11] = biological target: ARTD2/PARP2 (Homo sapiens, UniProt Q9UGN5); experiment: ARTD profiling, ARTD2
Sequence of ARTD2/PARP2 (Q9UGN5 whole entry): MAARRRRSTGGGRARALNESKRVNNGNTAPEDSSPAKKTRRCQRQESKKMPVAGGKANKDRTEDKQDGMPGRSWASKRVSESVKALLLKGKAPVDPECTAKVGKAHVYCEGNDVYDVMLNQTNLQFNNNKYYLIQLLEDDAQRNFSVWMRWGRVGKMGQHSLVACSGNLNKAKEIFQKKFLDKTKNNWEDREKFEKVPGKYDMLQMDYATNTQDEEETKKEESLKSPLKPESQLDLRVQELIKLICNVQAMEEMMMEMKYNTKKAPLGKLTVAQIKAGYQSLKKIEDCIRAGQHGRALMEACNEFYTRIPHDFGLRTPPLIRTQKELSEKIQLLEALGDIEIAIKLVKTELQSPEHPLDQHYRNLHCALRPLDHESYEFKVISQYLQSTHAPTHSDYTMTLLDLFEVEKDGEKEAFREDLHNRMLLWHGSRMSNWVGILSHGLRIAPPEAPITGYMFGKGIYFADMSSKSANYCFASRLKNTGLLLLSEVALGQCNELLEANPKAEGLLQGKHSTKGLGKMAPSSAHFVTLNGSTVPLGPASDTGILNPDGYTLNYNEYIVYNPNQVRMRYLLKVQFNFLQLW

[12] = biological target: ERK2 (Homo sapiens, UniProt P28482); experiment: Kinase functional assay (mobility shift), ERK2 (p42); assay type: biochemical; details: read-out: ERK2 (% Inhib.); for inhibition at 1 µM: 1 µM compound, Table S3; for inhibition at 10 µM: 10 µM compound, Table S4
Sequence of ERK2 (P28482 whole entry, species assumed): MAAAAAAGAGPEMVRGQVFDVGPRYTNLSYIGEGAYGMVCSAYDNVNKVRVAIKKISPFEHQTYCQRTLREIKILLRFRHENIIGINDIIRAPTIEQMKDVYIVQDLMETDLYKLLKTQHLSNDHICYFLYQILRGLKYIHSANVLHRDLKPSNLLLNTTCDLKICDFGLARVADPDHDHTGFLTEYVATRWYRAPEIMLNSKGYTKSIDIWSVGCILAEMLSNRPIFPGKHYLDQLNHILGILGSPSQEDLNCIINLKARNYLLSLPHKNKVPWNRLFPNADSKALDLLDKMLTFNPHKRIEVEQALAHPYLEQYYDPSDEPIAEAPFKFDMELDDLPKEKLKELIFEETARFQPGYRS

Row | IC50 [1] [µM] | inhibition at 1 µM [2] [%] | inhibition at 10 µM [2] [%] | IC50 [3] [µM] | IC50 [4] [µM] | IC50 [5] [µM] | AKT (% Inhib.) ([6]; 1 µM compound, Table S3) [%] | AKT (% Inhib.) ([6]; 10 µM compound, Table S4) [%] | IC50 [7] [µM] | IC50 [8] [µM] | IC50 [9] [µM] | inhibition at 1 µM [10] [%] | inhibition at 10 µM [10] [%] | IC50 [11] [µM] | inhibition at 1 µM [12] [%] | inhibition at 10 µM [12] [%] | Compound
1 | 12 | 1 ± 1 | 1 ± 1 | 0.03 | > 10 | > 10 | 1 ± 1 | 2 ± 2 | 23 | > 10 | > 10 | 3 ± 1 | 3 ± 3 | 8.6 | 2 ± 1 | 3 ± 1 | O=c1[nH]c(-c2ccc(N3CCCCC3)cc2)nc2ccccc12 [Compound 30]
2 | 5.5 | 2 ± 1 | 2 ± 1 | 0.011 | > 10 | > 10 | 1 ± 1 | 48 ± 4 | 2.1 | > 10 | > 10 | 1 ± 1 | 20 ± 2 | 24 | 2 ± 1 | 18 ± 3 | CCN(CC)c1ccc(-c2nc3ccccc3c(=O)[nH]2)cc1 [Compound 32]

From PMC5785997, “2-Phenylquinazolinones as dual-activity tankyrase-kinase inhibitors” (Scientific Reports, 2018)
